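In this assay, cells in 96-well plates receive the compound at five concentrations for 48 hours. Endpoints are linearly interpolated between the surrounding concentrations. GI50 marks 50% less growth. TGI: total growth inhibition.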
Assays:
Assay in all cases: NCI tumour cell line growth inhibition, 48 h
ACHN renal = tested on: ACHN renal
SF-268 CNS = tested on: SF-268 CNS
HOP-62 NSCLC = tested on: HOP-62 NSCLC
786-0 renal = tested on: 786-0 renal
UACC-257 melanoma = tested on: UACC-257 melanoma
SF-295 CNS = tested on: SF-295 CNS
MDA-N = tested on: MDA-N
SK-MEL-28 melanoma = tested on: SK-MEL-28 melanoma
NCI-H226 lung = tested on: NCI-H226 lung
OVCAR-4 ovarian = tested on: OVCAR-4 ovarian

SMILES | TGI (ACHN renal) [µM] | TGI (SF-268 CNS) [µM] | TGI (HOP-62 NSCLC) [µM] | TGI (786-0 renal) [µM] | TGI (UACC-257 melanoma) [µM] | TGI (SF-295 CNS) [µM] | TGI (MDA-N) [µM] | TGI (SK-MEL-28 melanoma) [µM] | TGI (NCI-H226 lung) [µM] | TGI (OVCAR-4 ovarian) [µM] | GI50 (OVCAR-4 ovarian) [µM] | GI50 (ACHN renal) [µM] | GI50 (SF-268 CNS) [µM] | GI50 (UACC-257 melanoma) [µM] | GI50 (SF-295 CNS) [µM] | GI50 (SK-MEL-28 melanoma) [µM]
CCOC(=O)C(c1c[nH]c2ccccc12)(c1c[nH]c2ccccc12)c1c[nH]c2ccccc12 | > 100 | > 100 | > 100 | > 100 | > 100 | > 100 | > 100 | > 100 |  |  |  |  |  |  |  | 
COc1cc2c(/C=C3/C(=O)Nc4ccc(Cl)cc43)c(Cl)n(Cc3ccccc3)c2cc1C | 6.8 | > 100 |  | 6.41 | > 100 | 7.19 |  | 9.46 | 9.61 |  |  |  |  |  |  | 
COc1ccc(/C=C2\OC(=O)C(Cl)=C2c2ccc(OC)cc2)cc1 | > 100 | > 100 | > 100 | > 100 | > 100 | > 100 | > 100 | > 100 |  | > 100 |  |  |  |  |  | 
Nc1ccn(C2CC(O)C(COP(O)(=S)OC3CC(n4ccc(N)nc4=O)OC3CO)O2)c(=O)n1 (centres undefined) | > 100 | > 100 | > 100 | > 100 | > 100 | > 100 | > 100 | > 100 |  | > 100 |  |  |  |  |  | 
CCOC(=O)/C(N=Nc1ccc(-n2c(C)nc3ccccc3c2=O)cc1)=C(/C)O | > 100 | > 100 | > 100 | > 100 | > 100 | > 100 | > 100 | 71.6 | 80.1 |  |  |  |  |  |  | 
O=C1CSC2(CC(/C=C/c3ccccc3O)=NN2c2cccc(S(=O)(=O)O)c2)N1c1nc2ccccc2s1 (centres undefined) | > 100 | > 100 |  | 98.7 | > 100 |  | > 100 | > 100 | > 100 | 88.5 |  |  |  |  |  | 
CCCCc1ccc(Nc2nc(Cl)c3c(ncn3COCCOC(C)=O)n2)cc1 | 35.8 | 38.5 | 31.5 | 36.9 | 31.4 | 28.2 | 34.4 |  | 40.6 | 66.6 |  |  |  |  |  | 
NC(=S)NNC(=O)/C(=C/c1ccc(/C=C(\NC(=O)c2ccccc2)C(=O)NNC(N)=S)cc1)NC(=O)c1ccccc1 | > 100 | > 100 | > 100 | > 100 | > 100 | > 100 |  | > 100 | > 100 | > 100 |  |  |  |  |  | 
COc1ccc(-c2ccc(-c3ccc(C(=N)N)nc3)s2)cc1 | 3.24 | 3.28 |  |  | 3.51 | 3.1 |  | 3.27 |  | 3.3 | 1.79 | 1.84 | 1.76 | 1.8 | 1.71 | 1.75
Fc1c(F)c(C(F)(F)F)c(F)c(F)c1N/N=C\c1c[nH]c2ccccc12 | 19.5 | 19.4 | 4.16 | 14.5 | 14.3 | 6.82 | 3.61 | 20 |  | 6.72 |  |  |  |  |  | 
CC1CC2OC(=O)C3CC(O)CC(=C23)[C@@]12C[C@@H](c1ccoc1)OC2=O (some centres undefined) | > 100 | > 100 |  | > 100 | > 100 | > 100 |  | > 100 | > 100 | > 100 |  |  |  |  |  | 
O=C(O)C(=C\c1ccc2c(c1)OCO2)/C(=C/c1ccc2c(c1)OCO2)C(=O)O |  |  | > 100 |  | > 100 | > 100 | > 100 | > 100 | > 100 | > 100 |  |  |  |  |  | 
CC1=C(C(=O)Nc2cccc3c2C(=O)NC3=O)CC(C(=O)Nc2cccc3c2C(=O)NC3=O)=C(C)N1 | > 100 | > 100 | > 100 | > 100 | > 100 | > 100 | > 100 | > 100 |  | > 100 |  |  |  |  |  | 
COc1cc(OCc2ccc3nc(-c4ccccc4)c(N)nc3c2)cc(OC)c1OC | 63.8 | > 100 |  | 81.2 | 49.7 | 68.7 | 28.8 | 49 | 50.4 | 34.6 |  |  |  |  |  | 
NCCCCNCCCN1CC1 |  | > 100 | 5.83 | 5.75 | > 100 | > 100 | > 100 | > 26 | > 31.4 | 0.733 |  |  |  |  |  | 
Cn1nc(Cc2ccc(Cl)cc2)n(N)c1=O | > 100 | > 100 |  | > 100 | > 100 | > 100 | > 100 | > 100 | > 100 |  |  |  |  |  |  | 
CC(C)OP(=O)(OC(C)C)C(C(C)C)N(C)/C(N)=N\C1=NC(C(F)(F)F)(C(F)(F)F)N=C(C(C(F)(F)F)C(F)(F)F)O1 (centres undefined) | 8.67 | 12 | 18 | 12.4 | 10.3 | 18 | 4.91 | 12.4 | 5.05 |  |  |  |  |  |  | 
CSC1=N[C@H](c2ccccc2)CS1 | > 100 |  | > 100 | > 100 | > 100 | > 100 | > 100 | > 100 |  | > 100 |  |  |  |  |  | 
CC(C)c1ccccc1SC1CC(=O)CC(Sc2ccccc2C(C)C)C12O[C@H](c1ccccc1)[C@@H](c1ccccc1)O2 (some centres undefined) | > 100 |  | > 100 | 33.3 | > 100 | > 100 | 47.5 | > 100 |  | > 100 |  |  |  |  |  | 
O=S(=O)([O-])[O-].[Fe+2].c1ccc(/C(=N\Nc2ccccn2)c2ccccn2)cc1 | 5.35 | 19.3 | 12 | 10.7 | 4.39 | 8.77 |  |  | 4.37 | 2.96 |  |  |  |  |  | 
O=P(O)(OCC(O)O)OCC(O)O | > 100 | > 100 | > 100 | > 100 | > 100 | > 100 |  | > 100 |  |  |  |  |  |  |  | 
CC1=C/C(=N\OCC(=O)O)CC(c2ccc(C(C)C)cc2)C1 (centres undefined) |  |  |  | > 100 | > 100 | > 100 | > 100 |  |  |  |  |  |  |  |  | 
O=C(c1ccc(Cl)cc1Cl)N(C(=O)N1CCC(c2ccccc2)CC1)c1ccccc1 | > 100 |  | > 100 | > 100 | > 100 | > 100 |  | > 100 | > 100 |  |  |  |  |  |  | 
C/C(CN1C(=O)c2ccccc2C1=O)=N\NS(=O)(=O)c1ccc(Br)cc1 | > 100 | > 100 | > 100 | > 100 | > 100 | > 100 |  | > 100 | > 100 | > 100 |  |  |  |  |  | 
